Measurements reported in PMC3413742 (Biological psychiatry, 2012).

Tests used:
hDAT Y335A = hDAT Y335A (Homo sapiens, UniProt Q01959, Y335A); assay: [3H]DA uptake inhibition in COS-7 cells expressing hDAT Y335A mutant; type: cell-based
hDAT WT [1] = biological target: T1, hDAT WT (Homo sapiens, UniProt Q01959); assay: [3H]WIN 35,428 binding in COS-7 cells transiently expressing hDAT WT; details: R- versus S-modafinil
NET [2] = biological target: T2, NET (Homo sapiens, UniProt P23975); assay: [3H]DA uptake inhibition at the NET; type: cell-based
NET [3] = biological target: T2, NET; assay: [3H]nisoxetine binding at the NET
[4] = system: extracellular DA concentrations in the mouse NAc shell; assay: Microdialysis of extracellular DA in the NAc shell; type: in vivo
[5] = system: mice trained to discriminate cocaine (10 mg/kg) from saline; assay: Cocaine discrimination procedure; type: in vivo, mouse; details: for substitution for the discriminative-stimulus effects of cocaine: pretreatment time 60 min
DAT = details: rat brain tissue; cited from earlier work
hDAT WT [6] = biological target: T1, hDAT WT; assay: [3H]DA uptake inhibition in COS-7 cells transiently expressing hDAT WT; type: cell-based

T2 sequence (P23975 whole entry): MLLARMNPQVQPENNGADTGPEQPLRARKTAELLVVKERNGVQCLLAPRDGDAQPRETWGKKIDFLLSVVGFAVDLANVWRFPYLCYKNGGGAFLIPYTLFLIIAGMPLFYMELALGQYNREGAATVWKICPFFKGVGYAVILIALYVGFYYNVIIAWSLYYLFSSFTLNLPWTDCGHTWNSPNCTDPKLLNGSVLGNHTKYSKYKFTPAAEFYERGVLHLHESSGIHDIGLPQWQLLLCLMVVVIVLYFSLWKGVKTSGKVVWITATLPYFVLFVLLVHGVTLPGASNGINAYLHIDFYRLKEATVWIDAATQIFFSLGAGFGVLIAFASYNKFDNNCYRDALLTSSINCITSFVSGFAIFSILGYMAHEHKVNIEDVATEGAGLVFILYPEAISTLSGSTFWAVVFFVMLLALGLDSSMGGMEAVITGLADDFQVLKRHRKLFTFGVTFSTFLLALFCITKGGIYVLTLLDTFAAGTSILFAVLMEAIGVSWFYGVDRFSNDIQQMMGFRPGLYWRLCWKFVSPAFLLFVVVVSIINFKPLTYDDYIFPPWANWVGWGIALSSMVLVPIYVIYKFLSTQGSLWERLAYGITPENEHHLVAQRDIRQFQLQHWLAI
T1 sequence (Q01959 whole entry): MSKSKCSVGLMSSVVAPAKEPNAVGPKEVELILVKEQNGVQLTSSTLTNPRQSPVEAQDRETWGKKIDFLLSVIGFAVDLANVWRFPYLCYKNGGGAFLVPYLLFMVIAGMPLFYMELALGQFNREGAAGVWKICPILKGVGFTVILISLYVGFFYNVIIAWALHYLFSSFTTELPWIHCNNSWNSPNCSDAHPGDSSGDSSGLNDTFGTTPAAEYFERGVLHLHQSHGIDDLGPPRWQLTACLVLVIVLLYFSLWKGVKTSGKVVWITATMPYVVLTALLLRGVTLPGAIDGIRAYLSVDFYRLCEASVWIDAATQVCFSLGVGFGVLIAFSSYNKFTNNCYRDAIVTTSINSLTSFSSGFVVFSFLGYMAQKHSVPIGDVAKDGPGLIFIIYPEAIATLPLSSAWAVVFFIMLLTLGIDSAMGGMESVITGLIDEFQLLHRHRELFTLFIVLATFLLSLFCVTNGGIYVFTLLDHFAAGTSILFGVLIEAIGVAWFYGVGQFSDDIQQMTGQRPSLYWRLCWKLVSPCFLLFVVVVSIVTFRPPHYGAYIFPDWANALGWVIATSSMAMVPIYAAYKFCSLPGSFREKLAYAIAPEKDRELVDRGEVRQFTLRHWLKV
hDAT Y335A, sequence (Q01959 whole entry Y335A): as the sequence (Q01959 whole entry) above, with Y335A counted along it

Q: Which “Y335A:WT IC50 ratio for [3H]DA uptake inhibition” value (hDAT Y335A) does the source give for `CCCCN1[C@@H]2CC[C@H]1CC(OC(c1ccc(F)cc1)c1ccc(F)cc1)C2` (stereo partly shown) [JHW 007] here?
A: ~ 20 fold

Q: For `NC(=O)C[S@@+]([O-])C(c1ccccc1)c1ccccc1` [R-modafinil, R-(−)-modafinil], which “higher affinity for DAT than the S-enantiomer” value (hDAT WT [1]) is on record?
A: ~ 3 fold

Q: And the IC50 (NET [2])?
A: > 100 µM

Q: What about the IC50 (NET [3]) of the same compound?
A: > 100 µM

Q: What about the “extracellular DA levels, stimulation as % of DA basal levels” value ([4]; 30, 100, 300 mg/kg i.p.) of the same compound?
A: approximately 300 % of DA basal levels

Q: And the “time after injection at which DA stimulation was reached” value ([4]; 30, 100, 300 mg/kg i.p.)?
A: 40 to 60 min

Q: And the “substitution for the discriminative-stimulus effects of cocaine” value (“substitution … of cocaine” below) [5]?
A: fully substituted for cocaine

Q: And the “higher affinity for the DAT than the S-enantiomer” value (DAT)?
A: ~ 3 fold

Q: Which “extracellular DA levels, maximum as % of basal levels” value ([4]; 10 – 55 mg/kg) does the source give for `COC(=O)[C@H]1[C@@H](OC(=O)c2ccccc2)C[C@@H]2CC[C@H]1N2C` [cocaine] here?
A: approximately 700 % of basal levels

Q: And the “time after injection of maximum DA” value ([4]; 10 – 55 mg/kg)?
A: ~ 30 min

Q: Which IC50 (NET [2]; read-out: IC50, inhibition of [3H]DA uptake at the NET, N=3, data not shown) does the source give for `NC(=O)C[S@+]([O-])C(c1ccccc1)c1ccccc1` [S-modafinil, S-(+)-modafinil] here?
A: > 100 µM

Q: And the IC50 (NET [3]; read-out: IC50, inhibition of [3H]nisoxetine binding at the NET, N=3, data not shown)?
A: > 100 µM

Q: What about the “ED50 Value, substitution for cocaine (95% confidence limits)” value ([5]; cocaine 5 min, modafinils 60 min before testing) of the same compound?
A: 89.0 (64.0 – 115) μmol/kg

Q: And the “substitution … of cocaine” value [5]?
A: fully substituted for cocaine

Q: With `NC(=O)C[S+]([O-])C(c1ccccc1)c1ccccc1` (racemic) [(±)-modafinil] as the compound, how does the “[3H]DA uptake inhibition potency lower than observed for DA” value (hDAT WT [6]) read?
A: more than 7 fold

Q: And the “substitution … of cocaine” value [5]?
A: fully substituted for cocaine
